Earlier results as cited in US7491713B2, “CGRP receptor antagonists” (Merck + Co., Inc., priority 2004, dated 2009).
Ends that are not written are not given here.

Key:
[1] = tested on: marmoset; details: marmoset (Doods et al. 2000)
[2] = tested on: rats; details: prior administration (Williamson et al. 1997)
[3] = tested on: rat; details: rat (Escott et al. 1995)

| Compound | effect on stimulation-induced increase of facial blood flow [1] | effect on stimulation-induced increase of middle meningeal artery diameter [2] | effect on stimulation-induced increase of facial blood flow [3] |
| --- | --- | --- | --- |
| NCCCC[C@H](NC(=O)[C@@H](Cc1cc(Br)c(O)c(Br)c1)NC(=O)N1CCC(N2Cc3ccccc3NC2=O)CC1)C(=O)N1CCN(c2ccncc2)CC1 [BIBN4096BS] | blocked | – | – |
| CGRP(8-37): a fragment of CGRP that lacks seven N-terminal amino acid residues; a peptide CGRP antagonist (VTHRLAGLLSRSGGVVKNNFVPTNVGSKAF; ends and bridges not checked; UniProt P06881 90-119, looked up, fragment) | – | blocked | inhibited |
